According to ChEMBL document CHEMBL4834464, “Fragment-based Scaffold Hopping: Identification of Potent, Selective, and Highly Soluble Bromo and Extra Terminal Domain (BET) Second Bromodomain (BD2) Inhibitors” (J Med Chem, 2021):
≈ marks a conversion by molar mass, not a printed value.

What was measured:
[1] = Distribution coefficient, logD of the compound by chromatography; assay type: physicochemical; details: octanol/water
[2] = Permeability of compound by AMP assay; assay type: ADME; details: not told; read-out: permeability
[3] = Solubility of the compound by CLND assay; assay type: physicochemical
[4] = Kinetic solubility of compound […] using the charged aerosol detector (CAD) analysis; assay type: physicochemical; details: read-out: Kinetic_solubility
[5] = Solubility of the compound in FaSSIF at pH 6.5 incubated for 16 hrs by HPLC gradient analysis; assay type: physicochemical; details: for solubility at 16 h: FaSSIF, pH 6.5; for solubility: simulated gi fluid, pH 6.5, 16 h
[6] = Intrinsic clearance in Wistar han rat hepatocytes measured per gram of tissue incubated for 60 mins by LC-MS/MS method; assay type: ADME, cell-based, Hepatocyte; details: 1 h
[7] = Intrinsic clearance in human hepatocytes measured per gram of tissue incubated for 120 mins by LC-MS/MS method; assay type: ADME, cell-based, Hepatocyte; details: 2 h
[8] = Intrinsic clearance in dog hepatocytes measured per gram of tissue by LC-MS/MS method; assay type: ADME, cell-based, Canis lupus familiaris, Hepatocyte
[9] = Blood clearance in male Wistar Han rat at 1 mg/kg, iv and 3 mg/kg, po measured up to 7 hrs by LC-MS/MS analysis; assay type: ADME, organism-based
[10] = Blood clearance in Beagle dog at 0.5 mg/kg, iv and 1 mg/kg, po measured up to 7 hrs by LC-MS/MS analysis; assay type: ADME, organism-based, Canis lupus familiaris
[11] = Volume of distribution at steady state in male Wistar Han rat at 1 mg/kg, iv and 3 mg/kg, po measured up to 7 hrs by LC-MS/MS analysis; assay type: ADME, organism-based; details: in vivo, read-out: Vdss
[12] = Volume of distribution at steady state in Beagle dog at 0.5 mg/kg, iv and 1 mg/kg, po measured up to 7 hrs by LC-MS/MS analysis; assay type: ADME, organism-based, Canis lupus familiaris; details: in vivo, read-out: Vdss
[13] = Half life in male Wistar Han rat at 1 mg/kg, iv and 3 mg/kg, po measured up to 7 hrs by LC-MS/MS analysis; assay type: ADME, organism-based; details: in vivo
[14] = Half life in Beagle dog at 0.5 mg/kg, iv and 1 mg/kg, po measured up to 7 hrs by LC-MS/MS analysis; assay type: ADME, organism-based, Canis lupus familiaris; details: in vivo
[15] = Oral bioavailability in male Wistar Han rat at 3 mg/kg measured up to 7 hrs by LC-MS/MS analysis; assay type: ADME, organism-based; details: in vivo
[16] = Oral bioavailability in Beagle dog at 1 mg/kg measured up to 7 hrs by LC-MS/MS analysis; assay type: ADME, organism-based, Canis lupus familiaris; details: in vivo
[17] = Solubility of the compound in FaSSIF at pH 6.5 using crystalline form of sample incubated for 16 hrs by HPLC gradient analysis; assay type: physicochemical

SMILES	chromatographic logD [1]	Papp [2]	solubility kinetic [3]	solubility kinetic [4]	solubility at 16 h [5]	further results
CNC(=O)c1cc(C(=O)NC2CC2)cn([C@H](C)c2ccccc2)c1=O	3.5	–	–	–	–	–
CNC(=O)c1cc(C(=O)NC2CCOCC2)n([C@@H](C)c2ccccc2)n1	3.6	27 ×10⁻⁶ cm/s	31 µg/mL (≈ 87 µM)	–	–	–
CNC(=O)c1cc(C(=O)N[C@H]2CC[C@H](O)CC2)c([C@@H](C)c2cccc(Cl)c2)o1	3.5	15 ×10⁻⁶ cm/s	–	≥ 179 µg/mL	408 µg/mL (≈ 1010 µM)	CLint [6]: 1.5 mL/min/g; CLint [7]: < 0.45 mL/min/g; CLint [8]: 0.71 mL/min/g; clearance [9]: 55 mL/min/kg; clearance [10]: 3.6 mL/min/kg; Vd [11]: 2.7 L/kg; Vd [12]: 0.9 L/kg; half-life [13]: 0.9 h; half-life [14]: 3.1 h; bioavailability [15]: 37%; bioavailability [16]: 62%
CNC(=O)c1cc(C(=O)N[C@H]2CC[C@H](O)CC2)n([C@@H](C)c2ccc(C(F)(F)F)cc2)n1	3.9	27 ×10⁻⁶ cm/s	–	≥ 175 µg/mL	–	–
CNC(=O)c1cc(C(=O)N[C@H]2[C@@H]3COC[C@@H]32)c([C@@H](C)c2ccccc2)o1	4.1	20 ×10⁻⁶ cm/s	≥ 131 µg/mL	–	–	solubility thermodynamic at 16 h [17]: 980 µg/mL (≈ 2770 µM); CLint [6]: < 0.8 mL/min/g; CLint [7]: < 0.45 mL/min/g; CLint [8]: < 0.65 mL/min/g; clearance [9]: 55 mL/min/kg; clearance [10]: 2.9 mL/min/kg; Vd [11]: 2.7 L/kg; Vd [12]: 1.1 L/kg; half-life [13]: 0.7 h; half-life [14]: 5 h; bioavailability [15]: 100%; bioavailability [16]: 100%
CNC(=O)c1cc(C(=O)N[C@H]2CC[C@H](O)CC2)n([C@@H](C)c2cccc(C)c2)n1	3.4	11 ×10⁻⁶ cm/s	–	≥ 180 µg/mL	–	–
CNC(=O)c1cc(C(=O)NC(C)CO)n([C@@H](C)c2ccccc2)n1 (stereo partly drawn)	2.8	12 ×10⁻⁶ cm/s	≥ 132 µg/mL	–	–	–
CCCNC(=O)c1cc(C(=O)NC)oc1[C@@H](C)c1ccccc1	4.2	48 ×10⁻⁶ cm/s	≥ 127 µg/mL	–	–	–
CNC(=O)c1cc(C(=O)N[C@H]2CC[C@H](O)CC2)c([C@@H](C)c2cccc(OC)c2)o1	2.9	4.4 ×10⁻⁶ cm/s	–	≥ 113 µg/mL	868 µg/mL (≈ 2170 µM)	–
CNC(=O)c1cc(C(=O)N[C@H]2CC[C@H](O)CC2)c([C@@H](C)c2ccccc2Cl)o1	3.1	7.8 ×10⁻⁶ cm/s	–	≥ 242 µg/mL	> 1000 µg/mL	–
CNC(=O)c1cc(C(=O)NC2CC2)c([C@H](C)c2ccccc2)o1	3.6	> 0.4 ×10⁻⁶ cm/s	–	≥ 112 µg/mL	–	–
CNC(=O)c1cc(C(=O)N[C@H]2CC[C@H](O)CC2)n([C@@H](C)c2ccc(Cl)cc2)n1	3.7	18 ×10⁻⁶ cm/s	–	≥ 132 µg/mL	102 µg/mL (≈ 252 µM)	–
CNC(=O)c1cc(C(=O)N[C@H]2CC[C@H](O)CC2)n([C@@H](C)c2cccc(C(F)(F)F)c2)n1	4.1	28 ×10⁻⁶ cm/s	–	7 µg/mL (≈ 16 µM)	–	–
CNC(=O)c1cc(C(=O)N[C@H]2[C@@H]3C[C@@H](O)C[C@@H]32)n([C@@H](C)c2ccccc2)n1	3.2	6.1 ×10⁻⁶ cm/s	≥ 291 µg/mL	–	–	solubility thermodynamic at 16 h [17]: 101 µg/mL (≈ 274 µM)
CNC(=O)c1cc(C(=O)N[C@H]2CC[C@H](O)CC2)c([C@@H](C)c2cccc(C)c2)o1	3.3	8.5 ×10⁻⁶ cm/s	–	≥ 172 µg/mL	> 1000 µg/mL	–
CNC(=O)c1cc(C(=O)N[C@H]2CC[C@H](O)CC2)c([C@@H](C)c2ccc(C)cc2)o1	3.4	10.8 ×10⁻⁶ cm/s	–	≥ 245 µg/mL	> 1000 µg/mL	–
CCCNC(=O)c1cc(C(=O)NC)nn1[C@@H](C)c1ccccc1	4.4	56 ×10⁻⁶ cm/s	≥ 132 µg/mL	–	–	–
CNC(=O)c1cc(C(=O)NCCO)c([C@@H](C)c2ccccc2)o1	2.3	3.3 ×10⁻⁶ cm/s	≥ 132 µg/mL	–	–	solubility thermodynamic at 16 h [17]: 925 µg/mL (≈ 2920 µM)
CNC(=O)c1cc(C(=O)NC2CC2)cn([C@@H](C)c2ccccc2)c1=O	3.3	–	–	–	699 µg/mL (≈ 2060 µM)	–
CNC(=O)c1cc(C(=O)N[C@H]2CC[C@H](O)CC2)n([C@@H](C)c2ccccc2Cl)n1	3.9	10 ×10⁻⁶ cm/s	–	≥ 182 µg/mL	–	–
CNC(=O)c1cc(C(=O)N[C@H]2[C@@H]3C[C@@H](OC)C[C@@H]32)n([C@@H](C)c2ccccc2)n1	2.7	44 ×10⁻⁶ cm/s	≥ 150 µg/mL	–	–	solubility thermodynamic at 16 h [17]: > 1000 µg/mL

SMILES	chromatographic logD [1]	Papp [2]	solubility kinetic [3]	solubility kinetic [4]	solubility at 16 h [5]	further results
CNC(=O)c1cc(C(=O)N[C@H]2CC[C@H](O)CC2)n([C@@H](C)c2cccc(Cl)c2)n1	3.7	23.5 ×10⁻⁶ cm/s	–	≥ 143 µg/mL	196 µg/mL (≈ 484 µM)	–
CNC(=O)c1cc(C(=O)NCCO)n([C@@H](C)c2ccccc2)n1	2.4	5.9 ×10⁻⁶ cm/s	≥ 139 µg/mL	–	–	–
CNC(=O)c1cc(C(=O)N[C@H]2CC[C@H](OC)CC2)n([C@@H](C)c2ccccc2)n1	4.2	36 ×10⁻⁶ cm/s	≥ 161 µg/mL	–	–	solubility thermodynamic at 16 h [17]: 355 µg/mL (≈ 923 µM); CLint [6]: 1.7 mL/min/g; CLint [7]: < 0.45 mL/min/g; CLint [8]: < 0.65 mL/min/g; clearance [9]: 32 mL/min/kg; clearance [10]: 6 mL/min/kg; Vd [11]: 2.4 L/kg; Vd [12]: 2.1 L/kg; half-life [13]: 1 h; half-life [14]: 4.1 h; bioavailability [15]: 80%; bioavailability [16]: 95%
CNC(=O)c1cc(C(=O)N[C@H]2CC[C@H](O)CC2)c([C@@H](C)c2ccc(Cl)cc2)o1	3.5	15 ×10⁻⁶ cm/s	–	≥ 118 µg/mL	–	–
CNC(=O)c1cc(C(=O)N[C@H]2CC[C@H](OC)CC2)n([C@@H](CO)c2ccccc2)n1	2.7	3.9 ×10⁻⁶ cm/s	–	≥ 164 µg/mL	> 1000 µg/mL	–
CNC(=O)c1cc(C(=O)N[C@H]2CC[C@H](OC)CC2)c([C@@H](C)c2ccccc2)o1	4.1	30.3 ×10⁻⁶ cm/s	≥ 192 µg/mL	–	–	solubility thermodynamic at 16 h [17]: 141 µg/mL (≈ 367 µM)
CC[C@@H](c1ccccc1)n1nc(C(=O)NC)cc1C(=O)N[C@H]1[C@@H]2C[C@H](O)C[C@@H]21	3.6	23 ×10⁻⁶ cm/s	–	–	–	–
CNC(=O)c1cc(C(=O)NC(C)CO)c([C@@H](C)c2ccccc2)o1 (stereo partly drawn)	2.7	5.7 ×10⁻⁶ cm/s	≥ 121 µg/mL	–	–	–
CC[C@@H](c1ccccc1)n1nc(C(=O)NC)cc1C(=O)N[C@H]1[C@@H]2C[C@@H](O)C[C@@H]21	3.3	12 ×10⁻⁶ cm/s	–	–	56 µg/mL (≈ 146 µM)	–
CNC(=O)c1cc(C(=O)NC)n([C@@H](C)c2ccccc2)n1	3	28 ×10⁻⁶ cm/s	≥ 88 µg/mL	–	–	–
CNC(=O)c1cc(C(=O)NC2CC2)n([C@@H](C)c2ccccc2)n1	3.6	> 40 ×10⁻⁶ cm/s	≥ 165 µg/mL	≥ 165 µg/mL	–	solubility [5]: 939 µg/mL (≈ 3010 µM)
CCC(=O)c1c[nH]c(C(=O)NC)c1	3.1	20 ×10⁻⁶ cm/s	–	87 µg/mL (≈ 483 µM)	13 µg/mL (≈ 72.1 µM)	–
CNC(=O)c1cc(C(=O)N[C@H]2[C@@H]3C[C@H](O)C[C@@H]32)n([C@@H](C)c2cccc(Cl)c2)n1	3.7	33.3 ×10⁻⁶ cm/s	–	≥ 168 µg/mL	327 µg/mL (≈ 812 µM)	CLint [6]: 17.3 mL/min/g; CLint [7]: 10.8 mL/min/g; CLint [8]: 8.3 mL/min/g
CNC(=O)c1cc(C(=O)NC2CC2)c([C@@H](C)c2ccccc2)o1	3.6	50 ×10⁻⁶ cm/s	≥ 145 µg/mL	≥ 145 µg/mL	–	solubility [5]: 423 µg/mL (≈ 1350 µM)
CCNC(=O)c1cc(C(=O)NC)nn1[C@@H](C)c1ccccc1	3.7	43.5 ×10⁻⁶ cm/s	≥ 137 µg/mL	–	–	–
CCNC(=O)c1cc(C(=O)NC)oc1[C@@H](C)c1ccccc1	3.5	42 ×10⁻⁶ cm/s	≥ 148 µg/mL	–	–	solubility thermodynamic at 16 h [17]: 432 µg/mL (≈ 1440 µM)
CNC(=O)c1cc(C(=O)N[C@H]2CC[C@H](O)CC2)c([C@@H](C)c2cccc(F)c2)o1	4.1	7.3 ×10⁻⁶ cm/s	–	≥ 63 µg/mL	–	–
CC[C@@H](c1ccccc1)n1nc(C(=O)NC)cc1C(=O)N[C@H]1CC[C@H](O)CC1	–	7 ×10⁻⁶ cm/s	–	138 µg/mL (≈ 359 µM)	> 1000 µg/mL	–
CNC(=O)c1cc(C(=O)NC2CC2)n(Cc2ccccc2)n1	3.1	> 8 ×10⁻⁶ cm/s	–	≥ 155 µg/mL	285 µg/mL (≈ 955 µM)	–
CCNC(=O)c1cc2c(-c3cc(C(C)(C)O)ccc3Oc3c(C)cc(F)cc3C)cn(C)c(=O)c2[nH]1 [ABBV-744]	5.1	41.3 ×10⁻⁶ cm/s	–	26 µg/mL (≈ 52.9 µM)	–	CLint [7]: 5.1 mL/min/g
